Laboratory results reported in patent publication US20070207946A1, “Dipeptidyl peptidase IV inhibitors and their uses for lowering blood pressure levels” (priority 2001, published 2007).
Like-named read-outs stand apart in the source and are kept apart here. Square brackets hold non-standard residues; d marks the D form. Peptide text beside a SMILES is read from it. * marks the point of attachment. pY = N[C@@H](Cc1ccc(OP(=O)(O)O)cc1)C(=O)O; aIle = CC[C@@H](C)[C@H](N)C(=O)O; Aoc(2) = CCCCCC[C@H](N)C(=O)O; Tle = CC(C)(C)[C@H](N)C(=O)O; Orn = NCCC[C@H](N)C(=O)O; Aze = O=C(O)[C@@H]1CCN1; Nva = CCC[C@H](N)C(=O)O; Abu = CC[C@H](N)C(=O)O; Bn = c1ccc(C*)cc1

Key:
[1] = molecular target: T1, dipeptidyl peptidase IV from porcine kidney (Sus scrofa, UniProt P22411); assay: Ki determination of DPIV inhibition; type: biochemical; details: substrate glycylprolyl-4-nitroaniline, HEPES pH7.6, 30° C.
T1 construct: dipeptidyl peptidase IV from porcine kidney; from tissue; host or cells: porcine kidney

purified porcine DPIV = purified porcine DPIV (Sus scrofa, UniProt P22411); assay: Determination of IC50 values (DPIV, Gly-Pro-pNA); type: biochemical; details: Gly-Pro-pNA 0.4 mM, HEPES pH7.6, 30° C.
Description: 100 μl inhibitor stock solution were mixed with 100 μl buffer (HEPES pH7.6) and 50 μl substrate (Gly-Pro-pNA, final concentration 0.4 mM) and preincubated at 30° C. Reaction was started by addition of 20 μl purified porcine DPIV. Formation of the product pNA was measured at 405 nm over 10 min using the HTS 7000Plus plate reader (Perkin Elmer) and slopes were calculated. The final inhibitor concentrations ranged between 1 mM and 30 nM. For calculation of IC50 GraFit 4.0.13 (Erithacus Software) was used.

plasma DPIV activity = molecular target: T2, plasma DPIV activity (Rattus norvegicus, UniProt P14740); assay: DPIV inhibiting activity after intravasal and oral administration to Wistar rats; type: in vivo; details: for in vivo DPIV-inhibition at tmax, i.v. / in vivo DPIV-inhibition at tmax, p.o.: dose 100 mg/kg; for inhibition at 100 mg/kg: rat
T2 construct: from tissue; host or cells: plasma of Wistar rats
Description: Male Wistar rats (Shoe: Wist(Sho)) with a body weight ranging between 250 and 350 g were purchased from Tierzucht Schönwalde (Schönwalde, Germany).
Animals were single-caged under conventional conditions with controlled temperature (22±2° C.) on a 12/12 hours light/dark cycle (light on at 06:00 AM). Standard pelleted chow (ssniff® Soest, Germany) and tap water acidified with HCl were allowed ad libitum.
After ≧one week of adaptation at the housing conditions, catheters were implanted into the carotid artery of Wistar rats under general anaesthesia (i.p. injection of 0.25 ml/kg b.w. Rompun® [2%], BayerVital, Germany and 0.5 ml/kg b.w. Ketamin 10, Atarost GmbH & Co., Twistringen, Germany). The animals were allowed to recover for one week. The catheters were flushed with heparin-saline (100 IU/ml) three times per week. In case of catheter dysfunction, a second catheter was inserted into the contra-lateral carotid artery of the respective rat. After one week of recovery from surgery, this animal was reintegrated into the study. In case of dysfunction of the second catheter, the animal was withdrawn from the study. A new animal was recruited and the experiments were continued in the planned sequence, beginning at least 7 days after catheter implantation.
After overnight fasting, 100 μl samples of heparinised arterial blood were collected at −30, −5, and 0 min. […] In the case of oral administration, an additional volume of 1 ml saline was injected into the arterial catheter. In the case of infra-arterial administration, the catheter was immediately flushed with 30 μl saline and an additional 1 ml of saline was given orally via the feeding tube.
All blood samples were collected into ice cooled Eppendorf tubes (Eppendorf-Netheler-Hinz, Hamburg, Germany) filled with 10 μl 1M sodium citrate buffer (pH 3.0) for plasma DPIV activity measurement. Eppendorf tubes were centrifuged immediately (12000 rpm for 2 min, Hettich Zentrifuge EBA 12, Tuttlingen; Germany): The plasma fractions were stored on ice until analysis or were frozen at −20° C. until analysis. All plasma samples were labelled with the following data:
The assay mixture for determination of plasma DPIV activity consisted of 80 μl reagent and 20 μl plasma sample. […] The DPIV activity was expressed in mU/ml.
All parameters were analysed in a descriptive manner including mean and SD.

PepT1 [2] = molecular target: T3, PepT1 (Oryctolagus cuniculus, UniProt P36836); assay: Inhibition of binding of 3H-D-Phe-Ala to PepT1-expressing P. pastoris cells; details: read-out: EC50: concentration inhibiting the binding of 3H-D-Phe-Ala to PepT1-expressing P. pastoris cells by 50%
T3 sequence (P36836 1-707): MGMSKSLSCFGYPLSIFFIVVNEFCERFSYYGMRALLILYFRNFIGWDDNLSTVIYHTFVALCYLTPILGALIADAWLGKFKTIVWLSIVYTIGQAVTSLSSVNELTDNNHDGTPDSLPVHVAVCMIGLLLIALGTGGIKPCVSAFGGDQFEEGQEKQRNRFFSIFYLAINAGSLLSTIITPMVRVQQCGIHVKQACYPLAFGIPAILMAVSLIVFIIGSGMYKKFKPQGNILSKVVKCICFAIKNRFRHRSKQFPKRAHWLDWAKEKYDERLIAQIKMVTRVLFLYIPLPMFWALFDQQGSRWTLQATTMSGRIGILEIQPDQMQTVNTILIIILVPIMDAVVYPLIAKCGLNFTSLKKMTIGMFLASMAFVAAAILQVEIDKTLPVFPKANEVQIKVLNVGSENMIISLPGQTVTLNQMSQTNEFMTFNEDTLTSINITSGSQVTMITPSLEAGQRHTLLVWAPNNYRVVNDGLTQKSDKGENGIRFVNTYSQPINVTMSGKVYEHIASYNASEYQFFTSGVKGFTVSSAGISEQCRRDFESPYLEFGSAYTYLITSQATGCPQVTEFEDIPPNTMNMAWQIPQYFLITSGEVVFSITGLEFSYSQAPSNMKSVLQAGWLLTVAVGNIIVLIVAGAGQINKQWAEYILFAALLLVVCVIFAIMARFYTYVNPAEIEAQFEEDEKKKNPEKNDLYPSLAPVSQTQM
Source text: (§1) Side chain-modified glutamyl thiazolidines having a structure H-Glu(X)-Thia were synthesised, with polyethylene glycol or glycine oligomers of various chain lengths being used as X (see Method A of example for description of synthesis). The binding characteristics of those derivatives and their transportability by the peptide transporter PepT1 were investigated.

PepT1 [3] = molecular target: T3, PepT1; assay: Transport characteristics at PepT1-expressing oocytes of X. leavis, two-electrode voltage clamp; type: cell-based
Source text: as §1

F344 rats = assay: Chronic intragastric infusion via osmotic minipumps over two weeks - blood pressure; type: in vivo, rat
Description: Reduced expression of the ectopeptidase DPIV and lack of DPIV-like activity in mutant F344 rats lacking DPIV enzymic activity and expression results in a lowered blood pressure. Mutant F344 substrains lacking DPIV enzymic activity and wild-type-like F344 were tested.

[4] = intra-vasal (intra-arterial) route

T1 sequence (P22411 whole entry): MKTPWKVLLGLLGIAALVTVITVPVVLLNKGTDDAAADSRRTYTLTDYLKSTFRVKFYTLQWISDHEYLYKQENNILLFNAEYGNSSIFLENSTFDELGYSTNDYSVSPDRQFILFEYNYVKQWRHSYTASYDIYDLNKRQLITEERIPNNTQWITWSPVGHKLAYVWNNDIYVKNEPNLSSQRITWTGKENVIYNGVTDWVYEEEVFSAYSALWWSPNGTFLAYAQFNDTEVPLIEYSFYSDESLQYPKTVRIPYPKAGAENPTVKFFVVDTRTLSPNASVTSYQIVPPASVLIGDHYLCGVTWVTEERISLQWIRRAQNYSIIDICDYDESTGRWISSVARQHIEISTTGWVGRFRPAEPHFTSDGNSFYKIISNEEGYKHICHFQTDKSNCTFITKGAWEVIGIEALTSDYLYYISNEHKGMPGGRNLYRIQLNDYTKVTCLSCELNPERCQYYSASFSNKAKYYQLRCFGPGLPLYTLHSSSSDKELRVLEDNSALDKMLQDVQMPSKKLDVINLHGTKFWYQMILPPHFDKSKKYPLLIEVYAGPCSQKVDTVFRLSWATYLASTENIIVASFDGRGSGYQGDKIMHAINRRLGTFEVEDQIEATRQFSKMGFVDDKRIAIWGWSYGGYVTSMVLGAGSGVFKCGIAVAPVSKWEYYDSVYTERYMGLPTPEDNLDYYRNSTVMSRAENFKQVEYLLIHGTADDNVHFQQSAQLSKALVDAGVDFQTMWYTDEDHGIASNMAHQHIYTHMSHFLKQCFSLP
purified porcine DPIV, sequence (P22411 whole entry): as above
T2 sequence (P14740 38-767 limits assumed): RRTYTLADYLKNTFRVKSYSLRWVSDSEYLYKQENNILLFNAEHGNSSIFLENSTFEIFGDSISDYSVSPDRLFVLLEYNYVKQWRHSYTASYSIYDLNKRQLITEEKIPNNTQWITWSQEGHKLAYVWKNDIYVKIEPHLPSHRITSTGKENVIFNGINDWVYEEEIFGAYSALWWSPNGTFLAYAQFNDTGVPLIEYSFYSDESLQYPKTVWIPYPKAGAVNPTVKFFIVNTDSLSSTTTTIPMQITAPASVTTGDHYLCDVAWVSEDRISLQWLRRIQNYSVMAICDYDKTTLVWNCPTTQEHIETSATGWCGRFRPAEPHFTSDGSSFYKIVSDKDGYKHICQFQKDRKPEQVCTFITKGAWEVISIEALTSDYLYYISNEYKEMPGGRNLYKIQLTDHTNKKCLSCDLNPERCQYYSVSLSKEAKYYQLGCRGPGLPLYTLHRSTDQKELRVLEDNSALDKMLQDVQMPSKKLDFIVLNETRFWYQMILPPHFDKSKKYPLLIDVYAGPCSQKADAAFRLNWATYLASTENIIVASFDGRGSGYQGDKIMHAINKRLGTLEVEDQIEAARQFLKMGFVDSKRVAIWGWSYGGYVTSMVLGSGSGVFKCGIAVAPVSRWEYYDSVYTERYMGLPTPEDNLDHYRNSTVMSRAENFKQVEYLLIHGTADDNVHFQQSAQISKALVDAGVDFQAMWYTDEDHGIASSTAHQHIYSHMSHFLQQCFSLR

Compound	Ki [1]	IC50 (purified porcine DPIV)	other results
CCCCCC[C@H](N)C(=O)N1CCC[C@H]1C(=O)N[C@H](C(=O)O)[C@@H](C)CC [AOA-Pro-Ile, 2-Amino octanoic acid-Pro-Ile] (H-[Aoc(2)]-Pro-Ile-OH)	12.6 µM		
CC[C@H](N)C(=O)N1CCC[C@H]1C(=O)N[C@H](C(=O)O)[C@@H](C)CC [Abu-Pro-Ile] (H-[Abu]-Pro-Ile-OH; N-terminus and C-terminus assumed)		34.3 µM	
Br.CC(=O)OCC(=O)[C@@H]1CCCN1C(=O)[C@@H](NC(=O)[C@H](C)N)C(C)C [Ala-Val-Pro-acyloxy methyl ketone, H-Ala-Val-Pro-CH2O—C(O)CH3*HBr]			in vivo DPIV-inhibition at tmax, i.v. (plasma DPIV activity; [4]): 89%; in vivo DPIV-inhibition at tmax, p.o. (plasma DPIV activity; oral): 86%
Br.CC(C)[C@H](NC(=O)[C@H](C)N)C(=O)N1CCC[C@H]1C(=O)COC(=O)c1ccccc1 [Ala-Val-Pro-benzoyl-methyl ketone, H-Ala-Val-Pro-CH2O—C(O)Ph*HBr]			in vivo DPIV-inhibition at tmax, i.v. (plasma DPIV activity; [4]): 97%; in vivo DPIV-inhibition at tmax, p.o. (plasma DPIV activity; oral): 76%
CC[C@H](C)[C@H](NC(=O)[C@@H]1CCCN1C(=O)[C@@H]1CCN1)C(=O)O [Aze-Pro-Ile] (H-[Aze]-Pro-Ile-OH; N-terminus and C-terminus assumed)		72.8 µM	
NC(CC(=O)O)C(=O)N1CCCC1 (stereo not drawn) [H-Asp-pyrrolidine]	14 µM		
N[C@@H](CCC(=O)NO)C(=O)N1CCSC1 [H-Glu(NHOH)-thiazolidine]	1.7 µM		EC50 (PepT1 [2]): 3180 µM; Imax, inward currents generated by the transport (PepT1 [3]): 42 ± 11 nA
N[C@@H](CCC(=O)O)C(=O)N1CCSC1 [H-Glu-thiazolidine]			Imax, inward currents generated by the transport (PepT1 [3]): 35 ± 13 nA
NC(Cc1c[nH]cn1)C(=O)N1CCCC1 (stereo not drawn) [H-His-pyrrolidine]	35 µM		
CCC(C)C(N)C(=O)N1CC1 (stereo not drawn) [H-Ile-azididine]	3.1 µM		
CC[C@@H](C)[C@H](NC(=O)[C@@H]1CCCN1C(=O)[C@@H](N)[C@@H](C)CC)C(=O)O [Ile-Pro-allo-Ile]	5.22 µM		
CC[C@H](C)[C@H](N)C(=O)N1CCC[C@H]1C(=O)N[C@H](C(=O)O)C(C)(C)C [Ile-Pro-t-butyl-Gly] (H-Ile-Pro-[Tle]-OH; N-terminus and C-terminus assumed)	18.9 µM	82.3 µM	
CCC(C)C(N)C(=O)C1CCCCC1 (stereo not drawn) [Ile-cyclohexyl ketone]	56.8 µM	293 µM	
CCC(C)C(N)C(=O)C1CCCC1 (stereo not drawn) [Ile-cyclopentyl ketone, 1-cyclopentyl-3-methyl-1-oxo-2-pentanaminium chloride]			inhibition at 100 mg/kg (plasma DPIV activity; iv, intra-vasal (intra-arterial) route, read-out: in vivo DPIV-inhibition at tmax, i.v.): 34%; inhibition at 100 mg/kg (plasma DPIV activity; oral, read-out: in vivo DPIV-inhibition at tmax, p.o.): 15%
CCC[C@H](N)C(=O)N1CCC[C@H]1C(=O)N[C@H](C(=O)O)[C@@H](C)CC [Nva-Pro-Ile] (H-[Nva]-Pro-Ile-OH; N-terminus and C-terminus assumed)	6.17 µM	24.9 µM	
CC[C@H](C)[C@H](NC(=O)[C@@H]1CCCN1C(=O)[C@@H](N)CCCN)C(=O)O [Orn-Pro-Ile] (H-[Orn]-Pro-Ile-OH; N-terminus and C-terminus assumed)		216 µM	

Compound	Ki [1]	IC50 (purified porcine DPIV)	other results
CC[C@H](C)[C@H](NC(=O)[C@@H]1CCCN1C(=O)[C@@H](N)COCc1ccccc1)C(=O)O [Ser(Bzl)-Pro-Ile] (H-Ser(Bn)-Pro-Ile-OH; N-terminus and C-terminus assumed)	21.6 µM	67.8 µM	
CC[C@H](C)[C@H](NC(=O)[C@@H]1CCCN1C(=O)[C@@H](N)Cc1ccc(OP(=O)(O)O)cc1)C(=O)O [Tyr(P)-Pro-Ile] (H-[pY]-Pro-Ile-OH; N-terminus and C-terminus assumed)			in vivo DPIV-inhibition at tmax, p.o. (plasma DPIV activity; oral): no inhibition
CC[C@@H](C)[C@H](NC(=O)[C@@H]1CCCN1C(=O)[C@@H](N)Cc1ccc(O)cc1)C(=O)O [Tyr-Pro-allo-Ile] (H-Tyr-Pro-[aIle]-OH; N-terminus and C-terminus assumed)	18.2 µM	64.1 µM	
CC[C@@H](C)[C@H](NC(=O)[C@@H]1CCCN1C(=O)[C@@H](N)C(C)C)C(=O)O [Val-Pro-allo-Ile]	9.54 µM		
CC(=O)C1CCCN1C(=O)C(N)C(C)C (stereo not drawn) [Val-Pro-methyl ketone]	0.0476 µM	0.579 µM	
CC(C)C(N)C(=O)C1CCCC1 (stereo not drawn) [Val-cyclopentyl ketone]	13.1 µM	49 µM	
CC[C@H](C)[C@H](N)C(=O)N1CCCC1C#N.O=C(O)C(F)(F)F (stereo partly drawn) [isoleucyl cyano pyrrolidine TFA]			blood pressure (F344 rats): dose-dependently reduced
CC(C)[C@@H](NC(=O)[C@@H]1CCCN1C(=O)[C@@H](N)C(C)(C)C)C(=O)O [t-butyl-Gly-Pro-D-Val] (H-[Tle]-Pro-[dV]-OH; N-terminus and C-terminus assumed)		112 µM	
CC(C)[C@H](NC(=O)[C@@H]1CCCN1C(=O)[C@@H](N)C(C)(C)C)C(=O)O [t-butyl-Gly-Pro-Val] (H-[Tle]-Pro-Val-OH; N-terminus and C-terminus assumed)	3.08 µM		
CC(C)(C)C(N)C(=O)C1CCCCC1 (stereo not drawn) [t-butyl-Gly-cyclohexyl ketone]	273 µM	273 µM	
H-Glu(PEG)-Thia	3.11 µM		EC50 (PepT1 [2]): > 10000 µM
Val-Pro-acyloxy methyl ketone	0.00105 µM	0.0102 µM	
Val-Pro-benzothiazol methyl ketone	0.0373 µM	0.138 µM	
Val-Pro-benzoyl methyl ketone	0.000536 µM	0.0179 µM	
Val-cyclohexyl ketone		1000 µM	
